Experimental data reported in patent US9067943B2, “[1,2,3]triazolo[4,5-D]pyrimidine derivatives” (priority 2011, dated 2015).
Like-named read-outs stand apart in the source and are kept apart here.

Experiments:
human CB2 receptors = biological target: T1, human CB2 receptors (Homo sapiens, UniProt P34972); test: cAMP assay; format: cell-based
T1 construct: expressed in transfected cells; host or cells: CHO cells
Procedure: (§1) CHO cells expressing human CB1 or CB2 receptors are seeded 17-24 hours prior to the experiment 50.000 cells per well in a black 96 well plate with flat clear bottom (Corning Costar #3904) in DMEM (Invitrogen No. 31331), 1×HT supplement, with 10% fetal calf serum and incubated at 5% CO2 and 37° C. in a humidified incubator. The growth medium was exchanged with Krebs Ringer Bicarbonate buffer with 1 mM IBMX and incubated at 30° C. for 30 min. Compounds were added to a final assay volume of 100 μl and incubated for 30 min at 30° C. Using the cAMP-Nano-TRF detection kit the assay (Roche Diagnostics) was stopped by the addition of 50 μl lysis reagent (Tris, NaCl, 1.5% Triton X100, 2.5% NP40, 10% NaN3) and 50 μl detection solutions (20 μM mAb Alexa700-cAMP 1:1, and 48 μM Ruthenium-2-AHA-cAMP) and shaken for 2 h at room temperature. The time-resolved energy transfer is measured by a TRF reader (Evotec Technologies GmbH), equipped with a ND:YAG laser as excitation source. The plate is measured twice with the excitation at 355 nm and at the emission with a delay of 100 ns and a gate of 100 ns, total exposure time 10 s at 730 (bandwidth 30 nm) or 645 nm (bandwidth 75 nm), respectively. The FRET signal is calculated as follows: FRET=T730-Alexa730-P(T645-B645) with P=Ru730-B730/Ru645-B645, where T730 is the test well measured at 730 nM, T645 is the test well measured at 645 nm, B730 and B645 are the buffer controls at 730 nm and 645 nm, respectively. cAMP content is determined from the function of a standard curve spanning from 10 μM to 0.1 nM cAMP.
(§2) EC50 values were determined using Activity Base analysis (ID Business Solution, Limited). The EC50 values for a wide range of cannabinoid agonists generated from this assay were in agreement with the values published in the scientific literature.

human CB1 receptors = biological target: T2, human CB1 receptors (Homo sapiens, UniProt P21554); test: cAMP assay; format: cell-based
T2 construct: expressed in transfected cells; host or cells: CHO cells
Procedure: as §1, §2

[1] = functional cAMP assay, CHO cells expressing human CB2, read-out: human CB2 EC50

T2 sequence (P21554 whole entry): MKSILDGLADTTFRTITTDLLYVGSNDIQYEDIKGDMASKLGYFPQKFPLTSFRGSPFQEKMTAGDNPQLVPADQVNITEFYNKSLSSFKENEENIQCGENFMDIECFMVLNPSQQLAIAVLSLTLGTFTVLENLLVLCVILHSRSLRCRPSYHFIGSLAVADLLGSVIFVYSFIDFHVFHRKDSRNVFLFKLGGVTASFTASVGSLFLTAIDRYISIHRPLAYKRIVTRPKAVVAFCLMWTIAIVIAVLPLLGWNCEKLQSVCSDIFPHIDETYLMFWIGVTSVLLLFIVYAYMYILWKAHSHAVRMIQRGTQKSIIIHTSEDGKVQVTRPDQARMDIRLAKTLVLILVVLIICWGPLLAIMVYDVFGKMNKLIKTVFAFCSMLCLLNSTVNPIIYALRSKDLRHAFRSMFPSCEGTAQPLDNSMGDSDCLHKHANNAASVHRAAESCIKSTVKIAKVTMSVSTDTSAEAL
T1 sequence (P34972 whole entry): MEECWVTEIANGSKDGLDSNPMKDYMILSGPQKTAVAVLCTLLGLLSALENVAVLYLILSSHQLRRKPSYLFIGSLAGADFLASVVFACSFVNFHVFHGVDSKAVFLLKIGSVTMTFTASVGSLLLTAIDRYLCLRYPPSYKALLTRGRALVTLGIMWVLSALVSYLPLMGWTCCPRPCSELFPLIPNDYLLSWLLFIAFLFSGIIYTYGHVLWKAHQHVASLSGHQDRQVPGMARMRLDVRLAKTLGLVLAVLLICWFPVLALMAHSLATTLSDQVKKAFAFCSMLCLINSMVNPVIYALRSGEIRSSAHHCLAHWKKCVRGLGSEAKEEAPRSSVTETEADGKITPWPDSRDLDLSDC

| Compound | EC50 (human CB2 receptors) [nM] | EC50 (human CB1 receptors) [nM] | EC50 (human CB2 receptors; [1]) [nM] |
| --- | --- | --- | --- |
| CC(C)(C)c1nc(N2CCC(F)(F)C2)c2nn(Cc3c(Cl)ccnc3Cl)nc2n1 [Example 44, 5-tert-Butyl-2-(2,4-dichloro-pyridin-3-ylmethyl)-7-(3,3-difluoro-pyrrolidin-1-yl)-2H-[1,2,3]triazolo[4,5-d]pyrimidine] | 0.2 | 454 | – |
| Cn1c(Cn2nc3nc(C(C)(C)C)nc(N4CCC(F)(F)C4)c3n2)nnc1S(C)(=O)=O [Example 70, 5-tert-Butyl-7-(3,3-difluoro-pyrrolidin-1-yl)-2-(5-methanesulfonyl-4-methyl-4H-[1,2,4]triazol-3-ylmethyl)-2H-[1,2,3]triazolo[4,5-d]pyrimidine] | 33.6 | > 10000 | – |
| CC(C)(C)c1nc(N2CCC(F)(F)C2)c2nn(CCO)nc2n1 [Example 5, 2-[5-tert-Butyl-7-(3,3-difluoro-pyrrolidin-1-yl)-[1,2,3]triazolo[4,5-d]pyrimidin-2-yl]-ethanol] | 64.7 | > 10000 | – |
| CC(C)(C)c1nc(N2CC[C@H](O)C2)c2nn(Cc3nccc(Cl)c3Cl)nc2n1 [Example 85, (S)-1-[5-tert-Butyl-2-(3,4-dichloro-pyridin-2-ylmethyl)-2H-[1,2,3]triazolo[4,5-d]pyrimidin-7-yl]-pyrrolidin-3-ol] | 10.2 | > 10000 | – |
| Cc1nnc(Cn2nc3nc(C(C)(C)C)nc(N4CCC(F)(F)C4)c3n2)n1C [Example 83, 5-tert-Butyl-7-(3,3-difluoro-pyrrolidin-1-yl)-2-(4,5-dimethyl-4H-[1,2,4]triazol-3-ylmethyl)-2H-[1,2,3]triazolo[4,5-d]pyrimidine] | 6.1 | > 10000 | – |
| Cn1nnnc1Cn1nc2nc(C(C)(C)C)nc(N3CC[C@@](C)(O)C3)c2n1 [Example 130-b, (R)-1-[5-tert-Butyl-2-(1-methyl-1H-tetrazol-5-ylmethyl)-2H-[1,2,3]triazolo[4,5-d]pyrimidin-7-yl]-3-methyl-pyrrolidin-3-ol] | – | > 10000 | 798 |
| CC(C)(C)c1nc(N2CCC(F)(F)C2)c2nn(Cc3ccccc3C(F)(F)F)nc2n1 [Example 22, 5-tert-Butyl-7-(3,3-difluoro-pyrrolidin-1-yl)-2-(2-trifluoromethyl-benzyl)-2H-[1,2,3]triazolo[4,5-d]pyrimidine] | 0.2 | > 10000 | – |
| CC(C)(C)c1nc(N2CC[C@H](O)C2)c2nn(Cc3ncccc3Cl)nc2n1 [Example 75, (S)-1-[5-tert-Butyl-2-(3-chloro-pyridin-2-ylmethyl)-2H-[1,2,3]triazolo[4,5-d]pyrimidin-7-yl]-pyrrolidin-3-ol] | 4.6 | > 10000 | – |
| CC(C)(C)c1nc(N2CCC(F)(F)C2)c2nn(CC(=O)c3ccccc3)nc2n1 [Example 27, 2-[5-tert-Butyl-7-(3,3-difluoro-pyrrolidin-1-yl)-[1,2,3]triazolo[4,5-d]pyrimidin-2-yl]-1-phenyl-ethanone] | 0.9 | > 10000 | – |
| CCn1nc2nc(C(C)(C)C)nc(N3CCC(F)(F)C3)c2n1 [Example 3, 5-tert-Butyl-7-(3,3-difluoro-pyrrolidin-1-yl)-2-ethyl-2H-[1,2,3]triazolo[4,5-d]pyrimidine] | 18.5 | > 10000 | – |
| C[C@H](Oc1nc(N2CCC(F)(F)C2)c2nn(Cc3ncccc3Cl)nc2n1)C(F)(F)F [Example 117, 2-(3-Chloro-pyridin-2-ylmethyl)-7-(3,3-difluoro-pyrrolidin-1-yl)-5-((S)-2,2,2-trifluoro-1-methyl-ethoxy)-2H-[1,2,3]triazolo[4,5-d]pyrimidine] | 21.2 | > 10000 | – |
| CC(C)(C)c1nc(N2CCC(F)(F)C2)c2nn(Cc3cccnc3)nc2n1 [Example 16, 5-tert-Butyl-7-(3,3-difluoro-pyrrolidin-1-yl)-2-pyridin-3-ylmethyl-2H-[1,2,3]triazolo[4,5-d]pyrimidine] | 3.9 | > 10000 | – |
| CC(C)(C)c1nc(N2CCOCC2)c2nn(Cc3ccc(F)cc3Cl)nc2n1 [Example 2, 5-tert-Butyl-2-(2-chloro-4-fluoro-benzyl)-7-morpholin-4-yl-2H-[1,2,3]triazolo[4,5-d]pyrimidine] | 2.2 | > 10000 | – |
| CC(C)(C)c1nc(N2CC3(COC3)C2)c2nn(Cc3ncccc3Cl)nc2n1 [Example 108, 5-tert-Butyl-2-(3-chloro-pyridin-2-ylmethyl)-7-(2-oxa-6-aza-spiro[3.3]hept-6-yl)-2H-[1,2,3]triazolo[4,5-d]pyrimidine] | 5.2 | 362 | – |
| CC(C)(C)c1nc(N2CC[C@H](O)[C@@H]2CO)c2nn(Cc3nnnn3C3CC3)nc2n1 [Example 97, (2S,3S)-1-[5-tert-Butyl-2-(1-cyclopropyl-1H-tetrazol-5-ylmethyl)-2H-[1,2,3]triazolo[4,5-d]pyrimidin-7-yl]-2-hydroxymethyl-pyrrolidin-3-ol] | – | > 10000 | 144 |
| CC(C)(C)c1nc(N2CCC(F)(F)C2)c2nn(Cc3cnccc3Cl)nc2n1 [Example 35, 5-tert-Butyl-2-(4-chloro-pyridin-3-ylmethyl)-7-(3,3-difluoro-pyrrolidin-1-yl)-2H-[1,2,3]triazolo[4,5-d]pyrimidine] | 0.5 | 642 | – |
| CC(C)(C)c1nc(N2CCC(F)(F)C2)c2nn(CC(=O)c3ccc(Cl)cc3)nc2n1 [Example 53, 2-[5-tert-Butyl-7-(3,3-difluoro-pyrrolidin-1-yl)-[1,2,3]triazolo[4,5-d]pyrimidin-2-yl]-1-(4-chloro-phenyl)-ethanone] | 7.2 | > 10000 | – |
| Cn1nnnc1Cn1nc2nc(C(C)(C)C)nc(N3CCC(O)C3)c2n1 (stereo not drawn) [Example 114, 1-[5-tert-Butyl-2-(1-methyl-1H-tetrazol-5-ylmethyl)-2H-[1,2,3]triazolo[4,5-d]pyrimidin-7-yl]-pyrrolidin-3-ol] | 164 | > 10000 | – |
| CC(C)(C)c1nc(N2CCOCC2)c2nn(Cc3ccccc3Cl)nc2n1 [Example 1, 5-tert-Butyl-2-(2-chloro-benzyl)-7-morpholin-4-yl-2H-[1,2,3]triazolo[4,5d]pyrimidine] | 3.3 | > 10000 | – |
| Cc1nonc1Cn1nc2nc(C(C)(C)C)nc(N3CCC(F)(F)C3)c2n1 [Example 39, 5-tert-Butyl-7-(3,3-difluoro-pyrrolidin-1-yl)-2-(4-methyl-furazan-3-ylmethyl)-2H-[1,2,3]triazolo[4,5-d]pyrimidine] | 0.2 | > 10000 | – |
| CC(C)(C)c1nc(N2CCC(F)(F)C2)c2nn(C3CS(=O)(=O)C3)nc2n1 [Example 62, 5-tert-Butyl-7-(3,3-difluoro-pyrrolidin-1-yl)-2-(1,1-dioxo-1λ6-thietan-3-yl)-2H-[1,2,3]triazolo[4,5-d]pyrimidine] | 5.8 | > 10000 | – |
| Cc1nnc(Cn2nc3nc(C(C)(C)C)nc(N4CC[C@H](O)C4)c3n2)o1 [Example 87, (S)-1-[5-tert-Butyl-2-(5-methyl-[1,3,4]oxadiazol-2-ylmethyl)-2H-[1,2,3]triazolo[4,5-d]pyrimidin-7-yl]-pyrrolidin-3-ol] | – | > 10000 | 258 |
| CC(C)(C)c1nc(N2CCC(F)(F)C2)c2nn(Cc3cc(F)c(F)cc3Cl)nc2n1 [Example 19, 5-tert-Butyl-2-(2-chloro-4,5-difluoro-benzyl)-7-(3,3-difluoro-pyrrolidin-1-yl)-2H-[1,2,3]triazolo[4,5-d]pyrimidine] | 2.2 | > 10000 | – |
| Cc1nonc1Cn1nc2nc(C(C)(C)C)nc(N3CC[C@H](O)[C@@H]3CO)c2n1 [Example 98, (2S,3S)-1-[5-tert-Butyl-2-(4-methyl-furazan-3-ylmethyl)-2H-[1,2,3]triazolo[4,5-d]pyrimidin-7-yl]-2-hydroxymethyl-pyrrolidin-3-ol] | – | > 10000 | 211 |
| CC(C)(C)c1nc(N2CCC(F)(F)C2)c2nn(Cc3cc(F)ccc3Cl)nc2n1 [Example 31, 5-tert-Butyl-2-(2-chloro-5-fluoro-benzyl)-7-(3,3-difluoro-pyrrolidin-1-yl)-2H-[1,2,3]triazolo[4,5-d]pyrimidine] | 0.5 | – | – |
| CC(C)(C)c1nc(N2CCC(F)(F)C2)c2nn(Cc3cccc(F)c3Cl)nc2n1 [Example 30, 5-tert-Butyl-2-(2-chloro-3-fluoro-benzyl)-7-(3,3-difluoro-pyrrolidin-1-yl)-2H-[1,2,3]triazolo[4,5-d]pyrimidine] | 0.7 | – | – |
| CC(C)(C)c1nc(N2CCC(F)(F)C2)c2nn(C3COC3)nc2n1 [Example 32, 5-tert-Butyl-7-(3,3-difluoro-pyrrolidin-1-yl)-2-oxetan-3-yl-2H-[1,2,3]triazolo[4,5-d]pyrimidine] | 19 | – | – |
